Test results as given in patent US20220265817A1, “THERAPEUTIC COMPOSITIONS AND METHODS FOR TREATING HEPATITIS B” (priority 2017, published 2022).
Where two headings read alike, the source gives them in different places.

How the values were obtained:
[1] = tested on: D type HBV in primary human hepatocytes; experiment: microbe, parasite or virus in culture; assay type: cell-based; conditions: Hepatitis B virus, Hepatocyte; for EC50: determined in an earlier separate experiment
Description: (§1) The mouse liver perfusion was applied to isolate PHHs. The isolated hepatocytes were further purified by Percoll. The cells were resuspended with culture media and seeded into the 96-well plates (6×10^4 cell/well) or 48-well plates (1.2×10^5 cell/well). The PHHs were infected with a D type HBV one day post seeding (day 1).
(§2) On day 2, the test compounds were diluted and added into the cell culture plates. The culture media containing the compounds were refreshed every other day. The cell culture supernatants were collected on day 8 for the HBV DNA and antigen determinations.
(§3) The compounds were tested at 7 concentrations, 3-fold dilution, in triplicate.
(§4) Two compounds were tested at 5×5 matrix, in triplicate plates.
DNA in the culture supernatants harvested on days 8 were isolated with QIAamp 96 DNA Blood Kit (Qiagen-51161). For each sample, 100 μl of the culture supernatants was used to extract DNA. The DNA was eluted with 100 μl, 150 μl or 180 μl of AE. HBV DNA in the culture supernatants was quantified by qPCR. The combination effect was analyzed by the MacSynergy software. The primers are described below.

[2] = tested on: D type HBV in primary human hepatocytes (HBsAg); experiment: microbe, parasite or virus in culture; assay type: cell-based; conditions: Hepatitis B virus, Hepatocyte
Description: as §1, §2, §3, §4
HBsAg/HBeAg in the culture supernatants harvested on days 8 were measured by the HBsAg/HBeAg ELISA kit (Autobio) according to the manual. The samples were diluted with PBS to get the signal in the range of the standard curve. The inhibition rates were calculated with the formula below. The combination effect was analyzed by the MacSynergy software.
% Inh. HBsAg=[1-HBsAg quantity of sample/HBV quantity of DMSO control]×100.

SMILES: O=C(Nc1ccc(F)c(F)c1)c1cc(S(=O)(=O)NC2CCCC2)ccc1F [Compound 22]
- inhibition at 0.061728 µM ([1]; TAF 0.00 nM, COMPOUND 22 61.728 nM): 2.38%
- inhibition at 0.18519 µM ([1]; TAF 0.00 nM, COMPOUND 22 185.19 nM, read-out: AVERAGE % INHIBITION): -3.33%
- inhibition at 0.55556 µM ([1]; TAF 0.00 nM, COMPOUND 22 555.56 nM, read-out: AVERAGE % INHIBITION): 8.01%
- inhibition at 1.6667 µM ([1]; TAF 0.00 nM, COMPOUND 22 1666.7 nM): 28%
- inhibition at 5 µM ([1]; TAF 0.00 nM, COMPOUND 22 5000 nM, read-out: AVERAGE % INHIBITION): 54.7%
- inhibition at 0.06173 µM ([1]; read-out: AVERAGE % […] DNA, COMPOUND 22 61.73 nM alone): -11.8%
- inhibition at 0.18519 µM ([1]; read-out: AVERAGE % […] DNA, COMPOUND 22 185.19 nM alone, read-out: AVERAGE % INHIBITION HBV DNA): -9.12%
- inhibition at 0.55556 µM ([1]; read-out: AVERAGE % […] DNA, COMPOUND 22 555.56 nM alone, read-out: AVERAGE % INHIBITION HBV DNA): -12.7%
- inhibition at 1.66667 µM ([1]; read-out: AVERAGE % […] DNA, COMPOUND 22 1666.67 nM alone): 17.9%
- inhibition at 5 µM ([1]; read-out: AVERAGE % […] DNA, COMPOUND 22 5000.00 nM alone, read-out: AVERAGE % INHIBITION HBV DNA): 63.1%
- EC50 ([1]; HBV DNA, read-out: Inhibitor EC50): 1.02 µM
- EC50 ([1]; PHH, read-out: Inhibitor B EC50 HBV DNA): 1.02 µM
- inhibition at 0.06173 µM ([2]; read-out: AVERAGE % INHIBITION HBsAg, COMPOUND 22 61.73 nM alone): -9.16%
- inhibition at 0.18519 µM ([2]; read-out: AVERAGE % INHIBITION HBsAg, COMPOUND 22 185.19 nM alone): -10.2%
- inhibition at 0.55556 µM ([2]; read-out: AVERAGE % INHIBITION HBsAg, COMPOUND 22 555.56 nM alone): -3.82%
- inhibition at 1.66667 µM ([2]; read-out: AVERAGE % INHIBITION HBsAg, COMPOUND 22 1666.67 nM alone): 20.6%
- inhibition at 5 µM ([2]; read-out: AVERAGE % INHIBITION HBsAg, COMPOUND 22 5000.00 nM alone): 31%
- inhibition at 61.73 µM ([2]; read-out: AVERAGE % INHIBITION, IFNα2a 0.00 IU/mL, COMPOUND 22 61.73 μM): -13.8%
- inhibition at 185.19 µM ([2]; read-out: AVERAGE % INHIBITION, IFNα2a 0.00 IU/mL, COMPOUND 22 185.19 μM): -10.6%
- inhibition at 555.56 µM ([2]; read-out: AVERAGE % INHIBITION, IFNα2a 0.00 IU/mL, COMPOUND 22 555.56 μM): -5.08%
- inhibition at 1666.67 µM ([2]; read-out: AVERAGE % INHIBITION, IFNα2a 0.00 IU/mL, COMPOUND 22 1666.67 μM): 10.3%
- inhibition at 5000 µM ([2]; read-out: AVERAGE % INHIBITION, IFNα2a 0.00 IU/mL, COMPOUND 22 5000.00 μM): 23.1%
- inhibition at 0.061728 µM ([2]; read-out: AVERAGE % INHIBITION, TAF 0 nM, COMPOUND 22 61.728 nM): -0.32%
- inhibition at 0.18519 µM ([2]; read-out: AVERAGE % INHIBITION, TAF 0 nM, COMPOUND 22 185.19 nM): 2.37%
- inhibition at 0.55556 µM ([2]; read-out: AVERAGE % INHIBITION, TAF 0 nM, COMPOUND 22 555.56 nM): -2.17%
- inhibition at 1.6667 µM ([2]; read-out: AVERAGE % INHIBITION, TAF 0 nM, COMPOUND 22 1666.7 nM): 17.7%
- inhibition at 5 µM ([2]; read-out: AVERAGE % INHIBITION, TAF 0 nM, COMPOUND 22 5000 nM): 20.7%
- EC50 ([2]; read-out: Inhibitor B EC50 HBsAg): 12.8 µM
- EC50 ([2]; read-out: Inhibitor EC50): 12.8 µM
